Measurements taken from patent publication US20190224147A1, “CETP MODULATOR FOR USE IN THE TREATEMENT OF EYE DISEASE” (Hoffmann-La Roche Inc., priority 2013, published 2019).
Marks after values point to notes of the source that are not given here.

Key:
[1] = Golden Syrian hamsters study a: lutein and zeaxanthin levels in plasma, liver and eyecups (HPLC-MS); assay type: in vivo; conditions: hamsters fed 0.1% FLORAGLO, dalcetrapib 0.375% food admixture (~400 mg/kg), 14 days
Protocol: Hamsters (7 weeks-old) were fed a standard rodent chow diet containing 4.5% fat and 0.05% cholesterol and coconut oil (70 g/kg dry food) for 14 days. After two weeks of feeding, hamsters were allocated to 2 experimental groups of 10 animals and given the same diet as before supplemented with 0.1% (w:w) FLORAGLO (lutein 5.2%, zeaxanthin 0.5%, DSM Nutritional Products): group 1 received no treatment, group 2 was given dalcetrapib as a 0.375% food admixture (˜400 mg/kg).
After 14 days of treatment and 4 hours of fasting, plasma, liver and eyes were collected and kept frozen until analysis. Lutein and zeaxanthin levels in plasma, liver and the pooled eyecups from 2 hamsters were determined by HPLC-MS using cryptoxanthin as internal standard. Plasma samples were directly extracted with hexane/ethyl acetate in dark environment in the presence of BHT. Liver samples and pooled eye cups (n=4) were first homogenized in the presence of BHT using an appropriate solvent in a Precellys tissue homogenizer followed by saponification prior extraction with hexane/ethyl acetate. The organic phase was washed with water. All organic phases were dried and reconstituted in methanol containing 0.1%. HPLC-MS was accomplished on a Waters TQ-S in APCI mode coupled to an Acquity I-class UPLC (Waters AG, Baden-Dättwil) on an ACCLAIM C30 RP column (Thermo Fisher Scientific, Reinach).

[2] = Golden Syrian hamsters study b: lutein and zeaxanthin levels in plasma and liver; assay type: in vivo; conditions: hamsters fed 0.1% FLORAGLO, 14 days, dalcetrapib 0.320% (~300 mg/kg) or anacetrapib 0.024% (~25 mg/kg) in diet
Protocol: (§1) Hamsters (7 weeks-old) were fed a standard rodent chow diet containing 4.5% fat and 0.05% cholesterol and coconut oil (70 g/kg dry food) for 14 days. After 2 weeks of high-fat diet feeding, hamsters were allocated to 3 experimental treatment groups of 10 animals each based on plasma lipid levels, and provided the same diet as before supplemented with 0.1% (w/w) FLORAGLO (same composition as for Study 2) and either no treatment (group 1), dalcetrapib at 0.320% (w:w, ˜300 mg/kg, group 2), or anacetrapib at 0.024% (w:w, ˜25 mg/kg, group 3). After 14 days of treatment, plasma and livers were collected for lutein and zeaxanthin analysis as described in study a.

[3] = Golden Syrian hamsters study b: additional variables measured (cholesterol fractions, triglycerides); assay type: in vivo; conditions: 14 days, dalcetrapib ~300 mg/kg or anacetrapib ~25 mg/kg in diet
Protocol: as §1, with “3).” for “3). After 14 days of treatment, plasma and livers were collected for lutein and zeaxanthin analysis as described in study a.”

VCAM-1 expression = conditions: pre-incubation of human aortic endothelial cells; Martin K R et al, Atherosclerosis 2000; cited from earlier work
E-selectin expression = conditions: pre-incubation of human aortic endothelial cells; Martin K R et al, Atherosclerosis 2000; cited from earlier work
ICAM-1 = conditions: pre-treatment of human aortic endothelial cells; Martin K R et al, Atherosclerosis 2000; cited from earlier work

Row | Structure (SMILES) | Change in liver lutein, in % vs control [2] | Change in liver zeaxanthin, in % vs control [2] | Change in plasma lutein, in % vs control [2] | Change in plasma zeaxanthin, in % vs control [2] | Triglycerides, in % vs control [3] | VLDL-C, in % vs control [3] | reduced VCAM-1 expression (VCAM-1 expression) | reduced E-selectin expression (E-selectin expression) | reduced the expression of ICAM-1 (ICAM-1) | further results
1 | CCC(CC)CC1(C(=O)Nc2ccccc2SC(=O)C(C)C)CCCCC1 [dalcetrapib, S-[2-([[1-(2-ethylbutyl)-cyclohexyl]-carbonyl]amino)phenyl]2-methylpropanethioate] | +90% | +109% | +95% | +101% | −37** % | −27* % |  |  |  | Change in liver lutein, in % vs control ([1]; liver): +107%; Change in liver zeaxanthin, in % vs control ([1]; liver): +222.9%; Change in plasma lutein, in % vs control ([1]; plasma): +55.7%; Change in plasma zeaxanthin, in % vs control ([1]; plasma): +164%; Change in eyecups lutein, in % vs control ([1]; pooled eyecups): +164.6%; Change in eyecups zeaxanthin, in % vs control ([1]; pooled eyecups): +114%
2 | CC1=C(/C=C/C(C)=C/C=C/C(C)=C/C=C/C=C(C)/C=C/C=C(C)/C=C/C2=C(C)CCCC2(C)C)C(C)(C)CCC1 [beta-carotene] |  |  |  |  |  |  | 29% | 38% | 11% | 
3 | COc1cc(F)c(C(C)C)cc1-c1ccc(C(F)(F)F)cc1CN1C(=O)O[C@H](c2cc(C(F)(F)F)cc(C(F)(F)F)c2)[C@@H]1C [anacetrapib] | −32% | −31% | ns | ns | ns | ns |  |  |  | HDL-C, in % vs control [3]: +54*** %; LDL-C, in % vs control [3]: −99*** %; Total cholesterol, in % vs control [3]: +28** %
4 | CC1=C[C@H](O)CC(C)(C)[C@H]1/C=C/C(C)=C/C=C/C(C)=C/C=C/C=C(C)/C=C/C=C(C)/C=C/C1=C(C)C[C@@H](O)CC1(C)C [lutein, (3R,3′R,6′R)-β,ε-Carotene-3,3′-diol] |  |  |  |  |  |  | 28% | 34% | 14% | 
5 | CC(C)=CCC/C(C)=C/C=C/C(C)=C/C=C/C(C)=C/C=C/C=C(C)/C=C/C=C(C)/C=C/C=C(\C)CCC=C(C)C [lycopene] |  |  |  |  |  |  | 13% |  | 18% | 
